Data taken from patent publication US20260041677A1, “COMPOSITIONS AND METHODS FOR TREATING ADENOID CYSTIC CARCINOMA” (ELEVAR THERAPEUTICS, INC., priority 2022, published 2026).

How the values were obtained:
[1] = Phase 2 study of rivoceranib in R/M ACC: safety, adverse events, dose modifications; assay type: in vivo, human
Source text: Overall design: An ongoing Phase 2, multicenter, open-label, single-arm study was designed to evaluate the efficacy and safety of rivoceranib in patients with recurrent or metastatic (R/M) adenoid cystic carcinoma (ACC) of all anatomic sites of origin. The study was composed of an initial screening phase (up to 28 days), a treatment phase, and a follow-up phase.
(§1) Objectives: Primary objectives were to evaluate safety & tolerability, efficacy by objective response rate (ORR), best overall response (BOR), time to response, duration of response, disease control rate, and duration of disease control. Secondary objectives were to evaluate efficacy as measured by overall survival, progression-free survival and event-free survival. The primary efficacy endpoint was the ORR, defined as the proportion of patients who achieved confirmed complete response (CR) or partial response (PR) per Response Evaluation Criteria in Solid Tumors (RECIST) Version 1.1 (V1.1). The secondary efficacy endpoints were duration of response (DoR) assessed by the investigator and a blinded independent review committee (BIRC), progression-free survival (PFS) assessed at 6 months, 12 months, and 2 years by investigator and BIRC, Time to Progression (TTP) assessed by investigator and BIRC, and overall survival (OS) assessed at 1 and 2 years. Exploratory efficacy endpoints include ORR per CHOI response criteria (based on the journal article, Choi et al., Correlation of computed tomography and positron emission tomography in patients with metastatic gastrointestinal stromal tumor treated at a single institution with imatinib mesylate: proposal of new computed tomography response criteria. J Clin Oncol. 2007; 25(13): 1753-1759) by a blinded independent review […] (BIRC) and disease control rate (DCR) per RECIST V1.1 by Investigator and BIRC. Except for CHOI response criteria, all response endpoints were assessed per RECIST V1.1 by Investigator and BIRC.
Dose determination: Enrolled patients initiated treatment with rivoceranib 700 mg daily (QD). Up to 3 levels of dose reduction for toxicity were permitted: 500 mg QD, 300 mg QD and 200 mg QD. Patients received treatment until disease progression, unacceptable toxicity, death or withdrawal of consent to treatment. Patients deriving benefit were permitted to continue treatment with rivoceranib beyond disease progression. After discontinuation of study treatment, patients were to be followed for survival (and initiation of new anticancer therapy) for 24 months. Patients were dosed with rivoceranib 700 mg orally daily (QD) in 28-day cycles. Treatment with rivoceranib was continued until disease progression, unacceptable toxicity, death, or withdrawal of consent.
The median duration of treatment was 31.07 weeks (range: 0.6 to 103.0). The median time-averaged daily dose was 397.6 mg/day, which was […] of initial daily dose of 700 mg/day. Overall, 85% of patients required 1 or more dose modifications (reduction or interruption) due to an adverse event (AE).
Safety Summary: Rivoceranib was generally well-tolerated with the toxicity profile as expected based on other studies of rivoceranib in patients with solid tumors, and consistent with the class effect of angiogenesis inhibitors. […] Four patients experienced a fatal adverse event. These events consisted of epistaxis in two patients and acute respiratory failure in two patients. […] The median time to each of these dose reductions was 4.00, 7.71 and 16.00 weeks, respectively. The median duration of treatment was 31.1 weeks (range, 0.6-103.0). The median actual dose intensity was 421.0 mg/day. The relative dose intensity was 60.1%. Overall, 68 patients required one or more dose modifications (reduction or interruption) due to an adverse event. The median time to first dose reduction was 4.1 weeks (range, 1-40).

[2] = tested on: recurrent or metastatic (R/M) adenoid cystic carcinoma (ACC); assay: Phase 2 study of rivoceranib in R/M ACC: overall survival, intention-to-treat population; assay type: in vivo, human; details: 700 mg QD start
Source text: as §1
The OS was calculated by Overall Survival (months)=12*(Date of death−First dose of rivoceranib+1)/365.25. Median OS were not evaluable. In general, OS rates at 6, 9 and 12 months were similar regardless of prior VEGFR inhibitor treatment or prior systemic anticancer treatment.

N#CC1(c2ccc(NC(=O)c3cccnc3NCc3ccncc3)cc2)CCCC1 [Rivoceranib, N-[4-(1-cyanocyclopentyl)phenyl]-2-{[(pyridin-4-yl)methyl]amino}pyridine-3-carboxamide]
fatal adverse event: acute respiratory failure ([1]; N = 80, 700 mg QD start): two
fatal adverse event: epistaxis ([1]; N = 80, 700 mg QD start): two
patients who experienced a fatal adverse event ([1]; N = 80, 700 mg QD start): Four
Median time to dose reduction to 300 mg QD ([1]; human, in vivo): 7.71 weeks
Median time to dose reduction to 500 mg QD ([1]; human, in vivo): 4.00 weeks
Number of Subjects with Dose Interruption (n, %) ([1]; human, in vivo): (83.8) %
Number of Subjects with Dose Modification (n, %) ([1]; human, in vivo): (88.8) %
Treatment interruptions due to adverse events, patients ([1]; human, in vivo): 86.3%
Treatment reductions due to adverse events, patients ([1]; human, in vivo): 48.8%
median time to first dose reduction ([1]; human, in vivo): 4.1 weeks
patients dose reduced from 700 mg QD to 500 mg QD ([1]; human, in vivo): 80.0%
patients dose reduced to 200 mg QD ([1]; human, in vivo): 32.5%
patients dose reduced to 300 mg QD ([1]; human, in vivo): 51.3%
OS rate at 6 months ([2]; ITT population): 94.7%
OS rate at 9 months ([2]; ITT population): 83.5%
OS landmark 12-months, % (95% CI) ([2]; ITT, Total N = 80): 74.5 (62.5-83.1) %
OS landmark 18-months, % (95% CI) ([2]; ITT, Total N = 80): 61.7 (48.3-72.5) %
OS landmark 12-months, % (95% CI) ([2]; ITT, VEGFRi-naïve N = 66): 77.4 (64.2-86.2) %
OS landmark 18-months, % (95% CI) ([2]; ITT, VEGFRi-naïve N = 66): 66.0 (51.1-77.3) %
Median OS ([2]; ITT, VEGFRi-treated N = 14): 17.5 months
OS landmark 12-months, % ([2]; ITT, VEGFRi-treated N = 14): 62.9%
OS landmark 18-months, % ([2]; ITT, VEGFRi-treated N = 14): 45.8%
